According to patent US20090069230A1, “GDNF-DERIVED PEPTIDES” (The Research Foundation of State University of New York, priority 2007, published 2009):

Tested on: C6 glial cells
Assay: Ca2+ mobilization in GDNF peptide-treated C6 glial cells (Calcium Crimson-AM fluorescence)
Type: cell-based
Settings: for change in Ca2+ mobilization relative to control samples: external Ca2+ containing buffer, FIG. 6; for change in Ca2+ mobilization relative to control samples / change in fluorescence relative to the control sample: peptide 1 7.0 μM, peptide 2 2.3 μM, peptide 3 0.8 μM; for change in fluorescence relative to the control sample: external Ca2+ free buffer, FIG. 5
Description: We evaluated the ability of the GDNF peptides to activate G-protein associated transmembrane receptors. C6 glial cells were incubated with GDNF peptides, either singly or in combination, and calcium mobilization was monitored as a index of receptor activation.
GDNF peptides were custom synthesized via automated solid-phase methods using FMOC chemistry, HPLC purified, and characterized at the Small Peptide Synthesis Resource of the KECK Facility at Yale University. C6 glial cells were cultured to 80% confluency in the presence of GDNF peptides and loaded with the Ca^2+-sensitive fluorescent indicator dye, Calcium Crimson-AM (5 μM dye in Me2SO) at 37° C. for 20 min. Approximately 10^3 cells were then transferred into a quartz cuvette and the change in intracellular fluorescence was monitored in real time using an ISI Fluorescence spectrophotometer with an excitation wavelength of 590 nm. Emissions were monitored at 615 nm. An increase in fluorescence units was indicative of a rise in internal calcium.
C6 glial cells were cultured as above and incubated in increasing concentrations (0.8 μM; 1.6 μM; 2.4 μM; 3.2 μM and 4.0 μM) of GDNF-derived peptide (FPLPA (SEQ ID NO:4)). Fluorescence was measured according to the method in Example 3.
C6 glial cells were cultured as above and incubated in increasing concentrations (7.0 μM; 14 μM; 21 μM; 28 μM and 35 μM) of GDNF-derived peptide (PPEAPAEDRSL (SEQ ID NO:5)). Fluorescence was measured according to the method in Example 3.
C6 glial cells were cultured as above except that no Ca^2+ was present in the media. Cells were incubated with GDNF-derived peptides according to the experimental design indicated in Table 2 and the combinations in FIG. 5. Fluorescence was measured according to the method in Example 3.
C6 glial cells were cultured according to the method in Example 3. Cells were incubated with GDNF-derived peptides according to the experimental design indicated in Table 2 and the combinations in FIG. 6. Fluorescence was measured according to the method in Example 3.

Substance	change in Ca2+ mobilization relative to control samples	change in fluorescence relative to the control sample	Ca2+ mobilization (fluorescence), dose response (FPLPA at 0.8, 1.6, 2.4, 3.2 and 4.0 μM, FIG. 3)	Ca2+ mobilization (fluorescence), dose response (PPEAPAEDRSL at 7.0, 14, 21, 28 and 35 μM, FIG. 4)
ERNRQAAAANPENSRGK (listed as Homo sapiens) [GDNF-derived peptide, 17-mer]	decrease in Ca^2+ mobilization	moderate increases	–	–
FPLPA (listed as Homo sapiens) [GDNF-derived peptide, 5-mer]	decrease in Ca^2+ mobilization	moderate increases	dose-dependent increase in Ca^2+ mobilization at peptide concentrations up to 3.2 μM, followed by a decrease at 4.0 μM	–
PPEAPAEDRSL (listed as Homo sapiens) [GDNF-derived peptide, 11-mer]	increase in Ca^2+ mobilization	moderate increases	–	dose-dependent increase in Ca^2+ mobilization
